Assay results taken from PMC12703733, “Probing Guanidino Pendant or Bridged Groups in Cyclic Antimicrobial Peptides Derived from Temporin L: A Strategy to Improve Efficacy against Gram-Negative Bacteria” (Journal of Medicinal Chemistry, 2025).
In brackets after ≈: the same amount, converted by molar mass. Bridge positions count the residues as written; N and C are the ends. Square brackets hold non-standard residues; d marks the D form. Peptide text beside a SMILES is read from it. Phe(4-guanidino) = N=C(N)Nc1ccc(C[C@H](N)C(=O)O)cc1

Assays:
B. megaterium BM11 = test: microbe, parasite or virus in culture; assay type: cell-based; settings: BM11
Method: (§1) Bacterial strains used in this study were the Gram-positive S. aureus ATCC 25923, S. epidermidis ATCC 12228, B. megaterium BM11, S. [NT] 27591, E. faecalis ATCC 29212 and the Gram-negative E. coli ATCC 25922, P. aeruginosa ATCC 27853, A. baumannii ATCC 19606, E. coli D21 and P. aeruginosa PAO1. […] Bacterial cells in the mid log phase were diluted in Muller Hinton (MH) at a concentration of 2 × 10^6 cell/mL. […] Ciprofloxacin was used as antibiotic control. The plate was then incubated at 37 °C. MICs were obtained from three identical readings of four independent experiments.

P. aeruginosa PAO1 = test: microbe, parasite or virus in culture; assay type: cell-based; settings: PAO1
Method: as §1

S. aureus ATCC 25923 = test: microbe, parasite or virus in culture; assay type: cell-based; settings: ATCC 25923
Method: as §1

E. coli ATCC 25922 = test: microbe, parasite or virus in culture; assay type: cell-based; settings: ATCC 25922
Method: as §1

S. agalactiae ATCC 27591 = test: microbe, parasite or virus in culture; assay type: cell-based; settings: ATCC 27591
Method: as §1

[1] = test system: S. epidermidis ATCC 12228; test: microbe, parasite or virus in culture; assay type: cell-based; settings: ATCC 12228
Method: as §1

E. coli D21 = test: microbe, parasite or virus in culture; assay type: cell-based; settings: D21
Method: as §1

E. faecalis ATCC 29212 = test: microbe, parasite or virus in culture; assay type: cell-based; settings: ATCC 29212
Method: as §1

A. baumannii ATCC 19606 = test: microbe, parasite or virus in culture; assay type: cell-based; settings: ATCC 19606
Method: as §1

P. aeruginosa ATCC 27853 = test: microbe, parasite or virus in culture; assay type: cell-based; settings: ATCC 27853
Method: as §1

[2] = test system: human keratinocytes (HaCaT cells); assay type: cell-based
Method: (§2) For the evaluation of peptides’ cytotoxicity, the human immortalized keratinocytes (HaCaT cells), purchased from AddexBio (San Diego, CA, USA), and BEAS-2B were used. HaCaT cells were cultured in Dulbecco’s modified Eagle’s medium supplemented with 4 mM glutamine (DMEM), 10% heat-inactivated fetal bovine serum (FBS), and 0.1 mg/mL of penicillin and streptomycin, at 37 °C and 5% CO2. BEAS-2B cells were cultured in RPMI, supplemented with 2 mM glutamine (DMEM), 10% heat-inactivated fetal bovine serum (FBS), 1 mM sodium pyruvate, and 0.1 mg/mL of penicillin and streptomycin, at 37 °C and 5% CO2. Cytotoxicity was tested in vitro using a colorimetric assay that relies on the intracellular reduction of the yellow 3-(4,5-dimethylthiazol-2-yl)-2,5-diphenyltetrazolium bromide salt (MTT) by mitochondrial dehydrogenases of metabolically active cells in formazan crystals (purple). About 4 × 10^4 HaCaT and BEAS-2B cells, suspended in DMEM supplemented with 2% FBS, were plated in triplicate wells of a 96-well microtiter plate. The plate was incubated overnight at 37 °C and 5% CO2. Then, the cells were treated with different concentrations of the peptide (from 100 to 3.12 μM) in a fresh serum-free medium for 2 h and for a longer time (24 h). Following peptide treatment, the medium was removed, and MTT (0.5 mg/mL) solution in Hank’s buffer (136 mM NaCl, 4.2 mM Na2HPO4, 4.4 mM KH2PO4, 5.4 mM KCl, 4.1 mM NaHCO3, pH 7.2, supplemented with 20 mM D-glucose) was added to each well of the plate, that was then incubated for 4 h at 37 °C and 5% CO2. The purple formazan crystals were dissolved using acidified 2-propanol and a microplate reader (Infinite M200; Tecan, Salzburg, Austria) was used to measure the absorbance of each well at 570 nm. The percentage of cell viability was calculated compared to the control, which consisted of cells without any peptide treatment (corresponding to 100% viability) and all data represent the mean of three independent experiments ± SEM.

[3] = assay type: cell-based, human; settings: human
Method: as §2

circular dichroism = settings: water; pH ns; 25 °C; 150 uM

MIC (B. megaterium BM11) [µM]	MIC (P. aeruginosa PAO1) [µM]	MIC (S. aureus ATCC 25923) [µM]	MIC (E. coli ATCC 25922) [µM]	MIC (S. agalactiae ATCC 27591) [µM]	MIC [1] [µM]	MIC (E. coli D21) [µM]	MIC (E. faecalis ATCC 29212) [µM]	MIC (A. baumannii ATCC 19606) [µM]	MIC (P. aeruginosa ATCC 27853) [µM]	Structure (SMILES)	viability at 2 h, 6.25 µM ([3]; Cell viability (%)) [%]	viability at 2 h, 12.5 µM ([3]; Cell viability (%)) [%]	viability at 2 h, 25 µM ([3]; Cell viability (%)) [%]	viability at 2 h, 50 µM ([3]; Cell viability (%)) [%]	viability at 2 h, 100 µM ([3]; Cell viability (%)) [%]	viability at 24 h, 3.12 µM ([3]; Cell viability (%)) [%]	viability at 24 h, 6.25 µM ([3]; Cell viability (%)) [%]	viability at 24 h, 12.5 µM ([3]; Cell viability (%)) [%]	viability at 24 h, 25 µM ([3]; Cell viability (%)) [%]	viability at 24 h, 100 µM ([3]; Cell viability (%)) [%]	other results
1.56 (≈ 2.72 µg/mL)	50 (≈ 87.3 µg/mL)	3.12 (≈ 5.45 µg/mL)	6.25 (≈ 10.9 µg/mL)	3.12 (≈ 5.45 µg/mL)	1.56 (≈ 2.72 µg/mL)	12.5 (≈ 21.8 µg/mL)	12.5 (≈ 21.8 µg/mL)	1.56 (≈ 2.72 µg/mL)	50 (≈ 87.3 µg/mL)	CC[C@H](C)[C@H](NC(=O)[C@H](CCCNC(=N)N)NC(=O)[C@@H]1CCCCNC(=N)NCCCC[C@H](NC(=O)[C@H](Cc2ccccc2)NC(=O)[C@H](Cc2c[nH]c3ccccc23)NC(=O)[C@@H]2CCCN2C(=O)[C@@H](NC(=O)[C@@H](N)Cc2ccccc2)C(C)C)C(=O)N[C@@H](CCCCN)C(=O)N[C@@H](Cc2ccccc2)C(=O)N[C@H](CC(C)C)C(=O)N1)C(=O)N[C@@H](CC(C)C)C(N)=O [Peptide 11, FVPWF{KKFlK}RIL]	98	86	57	35	10	98 ± 4	97 ± 3	87 ± 3	35 ± 3	2 ± 1	cytotoxicity (in words) [2]: Low cytotoxicity (up to 25 μM); CC50 at 24 h ([3]; CC50): 21.3 µM; viability at 24 h, 50 µM ([3]; Cell viability (%)): 5 ± 3%; helicity (circular dichroism): 76%
0.78 (≈ 1.37 µg/mL)	25 (≈ 44 µg/mL)	25 (≈ 44 µg/mL)	12.5 (≈ 22 µg/mL)	3.12 (≈ 5.49 µg/mL)	6.25 (≈ 11 µg/mL)	6.25 (≈ 11 µg/mL)	25 (≈ 44 µg/mL)	6.25 (≈ 11 µg/mL)	50 (≈ 88.1 µg/mL)	CC[C@H](C)[C@H](NC(=O)[C@H](CCCNC(=N)N)NC(=O)[C@H]1CCC(=O)NCCCC[C@H](NC(=O)[C@H](Cc2ccc(NC(=N)N)cc2)NC(=O)[C@H](Cc2c[nH]c3ccccc23)NC(=O)[C@@H]2CCCN2C(=O)[C@@H](NC(=O)[C@@H](N)Cc2ccccc2)C(C)C)C(=O)N[C@@H](CCCCN)C(=O)N[C@@H](Cc2ccccc2)C(=O)N[C@H](CC(C)C)C(=O)N1)C(=O)N[C@@H](CC(C)C)C(N)=O [Peptide 8, FVPW(p-guanidino)F[KKFle]RIL] (H-FVPW[Phe(4-guanidino)]KKF[dL][dE]RIL-NH2; lactam 6-10)	112	115	110	92	63	101 ± 4	105 ± 6	110 ± 3	124 ± 1	58 ± 9	viability at 2 h, 3.12 µM ([3]; Cell viability (%)): 111%; helicity (circular dichroism): 7%
